These are literature values, as cited in patent US20050003003A1, “Modulation of release from dry powder formulations” (Advanced Inhalation Research, Inc., priority 1999, published 2005).

For one data set the following is noted: Table 1, phospholipids with low transition temperatures.
`CCCCCCCCCCCCCC(=O)OC[C@H](COP(=O)(O)OCC(O)CO)OC(=O)CCCCCCCCCCCCC` (mixture of isomers) [DMPG, 1,2-Dimyristoyl-sn-glycero-3-[phospho-rac-(1-glycerol)]]: the “Transition Temperature” value was 23 °C.

In the case of `CCCCCCCCCCCCCCCC(=O)OC[C@H](COP(=O)(O)OCC(O)CO)OC(=O)CCCCCCCCCCCCCCC` (mixture of isomers) [DPPG, 1,2-Dipalmitoyl-sn-glycero-3-[phospho-rac-(1-glycerol)]], the “Transition Temperature” value is 41 °C.

With `CCCCCCCCCCCCCC(=O)OC[C@H](COP(=O)(O)OC[C@H](N)C(=O)O)OC(=O)CCCCCCCCCCCCC` [1,2-Dimyristoyl-sn-glycero-3-[phospho-L-serine]], the “Transition Temperature” value was 35 °C.

Consider `CCCCCCCCCCCCCCC(=O)OC[C@H](COP(=O)([O-])OCC[N+](C)(C)C)OC(=O)CCCCCCCCCCCCCC` [1,2-Dipentadecanoyl-sn-glycero-3-phosphocholine], for which the “Transition Temperature” value is 33 °C.

Take `CCCCCCCCCCCCC(=O)OC[C@H](COP(=O)([O-])OCC[N+](C)(C)C)OC(=O)CCCCCCCCCCCC` [1,2-Ditridecanoyl-sn-glycero-3-phosphocholine]: the “Transition Temperature” value was 14 °C.

For the compound `CCCCCCCCCCCCCCCC(=O)O[C@H](COC(=O)CCCCCCCCCCCCC)COP(=O)([O-])OCC[N+](C)(C)C` [1-Myristoyl-2-palmitoyl-sn-glycero-3-phosphocholine], the “Transition Temperature” value is 35 °C.

With `CCCCCCCCCCCCCCCCCC(=O)O[C@H](COC(=O)CCCCCCCCCCCCC)COP(=O)([O-])OCC[N+](C)(C)C` [1-Myristoyl-2-stearoyl-sn-glycero-3-phosphocholine], the “Transition Temperature” value was 40 °C.

Turning to `CCCCCCCCCCCCCCCC(=O)OC[C@H](COP(=O)([O-])OCC[N+](C)(C)C)OC(=O)CCCCCCCCCCCCC` [1-Palmitoyl-2-myristoyl-sn-glycero-3-phosphocholine], the “Transition Temperature” value was 27 °C.

Consider `CCCCCCCCCCCCCCCCCC(=O)OC[C@H](COP(=O)([O-])OCC[N+](C)(C)C)OC(=O)CCCCCCCCCCCCC` [1-Stearoyl-2-myristoyl-sn-glycero-3-phosphocholine], for which the “Transition Temperature” value is 30 °C.

For the compound `CCCCCCCCCCCC(=O)OC[C@H](COP(=O)(O)O)OC(=O)CCCCCCCCCCC` [DLPA, 1,2-Dilauroyl-sn-glycero-3-phosphate], the “Transition Temperature” value was 31 °C.

Take `CCCCCCCCCCCC(=O)OC[C@H](COP(=O)([O-])OCC[N+](C)(C)C)OC(=O)CCCCCCCCCCC` [DLPC, 1,2-Dilauroyl-sn-glycero-3-phosphocholine]: the “Transition Temperature” value is −1 °C.

Regarding `CCCCCCCCCCCC(=O)OC[C@H](COP(=O)(O)OCCN)OC(=O)CCCCCCCCCCC` [DLPE, 1,2-Dilauroyl-sn-glycero-3-phosphoethanolamine], the “Transition Temperature” value is 29 °C.

As to `CCCCCCCCCCCCCC(=O)OC[C@H](COP(=O)([O-])OCC[N+](C)(C)C)OC(=O)CCCCCCCCCCCCC` [DMPC, 1,2-Dimyristoyl-sn-glycero-3-phosphocholine], the “Transition Temperature” value is 23 °C.

`CCCCCCCCCCCCCCCC(=O)OC[C@H](COP(=O)([O-])OCC[N+](C)(C)C)OC(=O)CCCCCCCCCCCCCCC` [DPPC, 1,2-Dipalmitoyl-sn-glycero-3-phosphocholine]: the “Transition Temperature” value is 41 °C.

Staying with this data set, now noted: Table 2, phospholipids with high transition temperatures.
Turning to `CCCCCCCCCCCCCCCCCC(=O)OCC(COP(=O)(O)OCC(O)CO)OC(=O)CCCCCCCCCCCCCCCCC` (racemic) [DSPG, 1,2-Distearoyl-sn-glycero-3-[phospho-rac-(1-glycerol)]], the “Transition Temperature” value was 55 °C.

Regarding `CCCCCCCCCCCCCCCCC(=O)OC[C@H](COP(=O)([O-])OCC[N+](C)(C)C)OC(=O)CCCCCCCCCCCCCCCC` [1,2-Diheptadecanoyl-sn-glycero-3-phosphocholine], the “Transition Temperature” value is 48 °C.

`CCCCCCCCCCCCCCCC(=O)OC[C@H](COP(=O)(O)OC[C@H](N)C(=O)O)OC(=O)CCCCCCCCCCCCCCC` [1,2-Dipalmitoyl-sn-glycero-3-[phospho-L-serine]]: the “Transition Temperature” value was 54 °C.

With `CCCCCCCCCCCCCCCCCC(=O)OC[C@H](COP(=O)(O)OC[C@H](N)C(=O)O)OC(=O)CCCCCCCCCCCCCCCCC` [1,2-Distearoyl-sn-glycero-3-[phospho-L-serine]], the “Transition Temperature” value was 68 °C.

As for `CCCCCCCCCCCCCCCCCC(=O)O[C@H](COC(=O)CCCCCCCCCCCCCCC)COP(=O)([O-])OCC[N+](C)(C)C` [1-Palmitoyl-2-stearoyl-sn-glycero-3-phosphocholine], the “Transition Temperature” value is 49 °C.

Take `CCCCCCCCCCCCCC(=O)OC[C@H](COP(=O)(O)O)OC(=O)CCCCCCCCCCCCC` [DMPA, 1,2-Dimyristoyl-sn-glycero-3-phosphate]: the “Transition Temperature” value is 50 °C.

For the compound `CCCCCCCCCCCCCC(=O)OC[C@H](COP(=O)(O)OCCN)OC(=O)CCCCCCCCCCCCC` [DMPE, 1,2-Dimyristoyl-sn-glycero-3-phosphoethanolamine], the “Transition Temperature” value was 50 °C.

For the compound `CCCCCCCCCCCCCCCC(=O)OC[C@H](COP(=O)(O)O)OC(=O)CCCCCCCCCCCCCCC` [DPPA, 1,2-Dipalmitoyl-sn-glycero-3-phosphate], the “Transition Temperature” value is 67 °C.

For `CCCCCCCCCCCCCCCC(=O)OC[C@H](COP(=O)(O)OCCN)OC(=O)CCCCCCCCCCCCCCC` [DPPE, 1,2-Dipalmitoyl-sn-glycero-3-phosphoethanolamine], the “Transition Temperature” value is 63 °C.

In the case of `CCCCCCCCCCCCCCCCCC(=O)OC[C@H](COP(=O)([O-])OCC[N+](C)(C)C)OC(=O)CCCCCCCCCCCCCCCCC` [DSPC, 1,2-Distearoyl-sn-glycero-3-phosphocholine], the “Transition Temperature” value was 55 °C.

As for `CCCCCCCCCCCCCCCCCC(=O)OC[C@H](COP(=O)(O)OCCN)OC(=O)CCCCCCCCCCCCCCCCC` [DSPE, 1,2-Distearoyl-sn-glycero-3-phosphoethanolamine], the “Transition Temperature” value is 74 °C.

The same data set, now with this note: bulk hydrated state.
Take `CCCCCCCCCCCCCCCC(=O)OC[C@H](COP(=O)([O-])OCC[N+](C)(C)C)OC(=O)CCCCCCCCCCCCCCC` [DPPC, 1,2-Dipalmitoyl-sn-glycero-3-phosphocholine]: the “transition temperature (Tc)” value is “approximately 41 °C”.

Turning to `CCCCCCCCCCCCCCCC(=O)OC[C@H](COP(=O)(O)OCCN)OC(=O)CCCCCCCCCCCCCCC` [DPPE, 1,2-Dipalmitoyl-sn-glycero-3-phosphoethanolamine], the “transition temperature (Tc)” value was “approximately 63 °C”.

Take `CCCCCCCCCCCCCCCCCC(=O)OC[C@H](COP(=O)([O-])OCC[N+](C)(C)C)OC(=O)CCCCCCCCCCCCCCCCC` [DSPC, 1,2-Distearoyl-sn-glycero-3-phosphocholine]: the “transition temperature (Tc)” value was “approximately 55 °C”.

Staying with this data set, now noted: phospholipid of the formulation.
For the compound `CCCCCCCCCCCCCCCC(=O)OC[C@H](COP(=O)([O-])OCC[N+](C)(C)C)OC(=O)CCCCCCCCCCCCCCC` [DPPC, 1,2-Dipalmitoyl-sn-glycero-3-phosphocholine], the theoretical transition was 41 °C.

For `CCCCCCCCCCCCCCCCCC(=O)OC[C@H](COP(=O)([O-])OCC[N+](C)(C)C)OC(=O)CCCCCCCCCCCCCCCCC` [DSPC, 1,2-Distearoyl-sn-glycero-3-phosphocholine], the theoretical transition was 55 °C.
